Reference: paper PMC9781101, “A High-Throughput Fluorescence Polarization-Based Assay for the SH2 Domain of STAT4” (Methods and Protocols, 2022)
Like-named read-outs stand apart in the source and are kept apart here. Each block holds one molecule with its values, some of them ahead of it. Non-standard residues stand in square brackets, D forms with d. Residues, ends and D or L forms follow the SMILES beside them. No end group written: not given here. *: point of attachment. 5FAM = O=C1OC2(c3ccc(O)cc3Oc3cc(O)ccc32)c2ccc(C(=O)*)cc21; pY = N[C@@H](Cc1ccc(OP(=O)(O)O)cc1)C(=O)O

What was measured:
[1] = target: T1, STAT4 SH2 domain (human STAT4 amino acids 136 to 705) (Homo sapiens, UniProt Q14765); test: Fluorescence polarization competitive inhibition of binding between 5-CF-GpYLPQNID and STAT4; settings: for IC50: SD; for inhibition: 33 nM STAT4, 10 nM probe
T1 sequence (Q14765 136-705): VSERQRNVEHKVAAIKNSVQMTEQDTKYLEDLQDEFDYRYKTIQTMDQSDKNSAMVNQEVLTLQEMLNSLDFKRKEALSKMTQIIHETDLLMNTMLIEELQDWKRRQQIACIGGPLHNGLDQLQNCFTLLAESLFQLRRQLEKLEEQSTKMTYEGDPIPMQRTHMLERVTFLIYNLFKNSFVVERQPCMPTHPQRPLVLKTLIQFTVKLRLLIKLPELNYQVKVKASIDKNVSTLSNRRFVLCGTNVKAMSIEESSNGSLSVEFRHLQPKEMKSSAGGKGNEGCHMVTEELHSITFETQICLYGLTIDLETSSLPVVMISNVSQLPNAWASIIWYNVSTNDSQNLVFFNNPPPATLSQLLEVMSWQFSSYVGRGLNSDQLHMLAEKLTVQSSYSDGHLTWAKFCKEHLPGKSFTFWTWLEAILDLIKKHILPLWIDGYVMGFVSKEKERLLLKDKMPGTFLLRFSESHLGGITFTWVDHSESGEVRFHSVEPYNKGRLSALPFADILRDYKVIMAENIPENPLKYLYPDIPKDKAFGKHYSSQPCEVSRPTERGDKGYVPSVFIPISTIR
Procedure: (§1) Binding of fluorescent-labelled peptides to the truncated STAT4 protein was analysed using an Infinite F500 plate reader (Tecan) as previously published for STAT5b [12]. Unless otherwise stated, FP assays were performed in a buffer consisting of 10 mM Tris/HCl, 50 mM NaCl, 1 mM EDTA, 0.1% (v/v) NP-40 substitute, 2% (v/v) DMSO and 1 mM DTT at a pH of 8.0. All steps were carried out at room temperature. For the binding assays shown in Figure 1, Figure 2 and Figure 3, the prediluted STAT4 protein was incubated for 1 h before addition of the fluorophore-labelled peptide, to mimic the incubation period with test compounds. For the inhibition assay shown in Figure 4, STAT4 was incubated with unlabelled peptide for 1 h before addition of the fluorophore-labelled peptide (final STAT4 concentration: 33 nM). Fluorescence polarization was read 1 h after addition of the labelled peptide, in non-treated black 384-well microplates (Corning). Fluorescent-labelled peptides were used at a final concentration of 10 nM unless otherwise stated. Binding and inhibition curves were plotted using OriginPro 2019 software (OriginLab). Fluorescence polarization values were normalized by subtracting the FP values of the wells containing the fluorophore-labelled peptides only. […] IC50 values from three independent experiments were used to calculate an average value and the corresponding standard deviation. IC50 values were converted to inhibition constants (Ki) using the published equation [20], with average values calculated as for IC50 values.

[2] = target: T1, STAT4 SH2 domain (human STAT4 amino acids 136 to 705); test: Fluorescence polarization direct binding assay, labelled phosphopeptides to truncated STAT4; settings: for fold lower affinity for STAT4 than 5-CF-GpYLPQNID: ratio of Kd values
Procedure: as §1

STAT4 = settings: cited from earlier work; for IC50: read-out: IC50 against STAT4 in an ELISA
[3] = target: STAT3 (amino acids 127 to 722) (Mus musculus, UniProt P42227); test: Fluorescence polarization direct binding assay, STAT3; design: species or system murine
STAT4 R598A = settings: FP, Figure 1b, compared with STAT4 wild-type
Procedure: Binding of fluorescent-labelled peptides to the truncated STAT4 protein was analysed using an Infinite F500 plate reader (Tecan) as previously published for STAT5b [12]. Unless otherwise stated, FP assays were performed in a buffer consisting of 10 mM Tris/HCl, 50 mM NaCl, 1 mM EDTA, 0.1% (v/v) NP-40 substitute, 2% (v/v) DMSO and 1 mM DTT at a pH of 8.0. All steps were carried out at room temperature. For the binding assays shown in Figure 1, Figure 2 and Figure 3, the prediluted STAT4 protein was incubated for 1 h before addition of the fluorophore-labelled peptide, to mimic the incubation period with test compounds. For the inhibition assay shown in Figure 4, STAT4 was incubated with unlabelled peptide for 1 h before addition of the fluorophore-labelled peptide (final STAT4 concentration: 33 nM). Fluorescence polarization was read 1 h after addition of the labelled peptide, in non-treated black 384-well microplates (Corning). Fluorescent-labelled peptides were used at a final concentration of 10 nM unless otherwise stated. […] Fluorescence polarization values were normalized by subtracting the FP values of the wells containing the fluorophore-labelled peptides only. […] IC50 values were converted to inhibition constants (Ki) using the published equation [20], with average values calculated as for IC50 values.

[4] = target: T2, STAT6 (amino acids 110 to 651) (Homo sapiens, UniProt P42226); test: Fluorescence polarization direct binding assay, STAT6; settings: FP, 10 nM labelled peptide; Figure S1
T2 sequence (P42226 110-651): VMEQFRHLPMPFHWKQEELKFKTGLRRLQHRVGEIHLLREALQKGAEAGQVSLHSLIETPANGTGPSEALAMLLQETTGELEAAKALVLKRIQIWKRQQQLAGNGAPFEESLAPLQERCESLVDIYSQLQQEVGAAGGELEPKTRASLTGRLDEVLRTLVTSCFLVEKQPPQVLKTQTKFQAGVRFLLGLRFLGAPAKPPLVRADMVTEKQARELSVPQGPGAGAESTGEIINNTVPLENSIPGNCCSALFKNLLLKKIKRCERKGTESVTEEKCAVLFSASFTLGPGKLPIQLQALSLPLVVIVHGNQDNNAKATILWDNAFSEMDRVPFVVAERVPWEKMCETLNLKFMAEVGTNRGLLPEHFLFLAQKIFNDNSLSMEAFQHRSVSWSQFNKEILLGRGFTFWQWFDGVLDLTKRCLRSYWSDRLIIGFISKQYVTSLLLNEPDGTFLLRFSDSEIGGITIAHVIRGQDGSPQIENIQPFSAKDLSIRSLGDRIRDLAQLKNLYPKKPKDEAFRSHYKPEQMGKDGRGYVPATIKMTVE

IFN-γ receptor peptide = target: T3, IFN-γ receptor peptide (Homo sapiens, UniProt P15260, also: 5-carboxyfluorescein, site not given here); test: fluorescence polarization
T3 chain: G[pY]DKPHVL

EPO receptor peptide = EPO receptor peptide (Homo sapiens, UniProt P19235, phosphotyrosine, 5-carboxyfluorescein); test: fluorescence polarization
gp130 peptide = gp130 peptide (Homo sapiens, UniProt P40189, phosphotyrosine, 5-carboxyfluorescein); test: fluorescence polarization

STAT3 (amino acids 127 to 722), sequence (P42227 127-722): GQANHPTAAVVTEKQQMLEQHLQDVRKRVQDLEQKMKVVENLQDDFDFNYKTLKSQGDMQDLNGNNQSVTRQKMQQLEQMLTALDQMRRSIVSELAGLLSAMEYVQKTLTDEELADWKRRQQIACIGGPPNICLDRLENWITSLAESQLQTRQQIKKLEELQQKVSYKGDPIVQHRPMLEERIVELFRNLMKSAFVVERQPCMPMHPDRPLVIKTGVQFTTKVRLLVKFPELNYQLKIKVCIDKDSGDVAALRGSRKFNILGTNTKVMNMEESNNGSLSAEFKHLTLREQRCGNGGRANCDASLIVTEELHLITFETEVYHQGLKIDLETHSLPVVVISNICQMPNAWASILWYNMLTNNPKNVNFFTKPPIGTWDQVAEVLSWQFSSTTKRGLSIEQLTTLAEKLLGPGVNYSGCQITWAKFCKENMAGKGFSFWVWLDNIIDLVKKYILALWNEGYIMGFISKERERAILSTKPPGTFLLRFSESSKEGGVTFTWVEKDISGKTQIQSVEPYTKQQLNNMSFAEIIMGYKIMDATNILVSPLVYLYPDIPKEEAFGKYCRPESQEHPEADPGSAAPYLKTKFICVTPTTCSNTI

Molecule: CC(C)C[C@H](NC(=O)[C@@H](NC(=O)[C@H](Cc1c[nH]cn1)NC(=O)[C@@H]1CCCN1C(=O)[C@H](CCCCN)NC(=O)[C@H](CC(=O)O)NC(=O)[C@H](Cc1ccc(OP(=O)(O)O)cc1)NC(=O)CN)C(C)C)C(=O)O [GpYDKPHVL] (H-G[pY]DKPHVL-OH)
IC50 [1]: 31400 ± 6700 nM

Molecule: CC[C@H](C)[C@H](NC(=O)[C@H](CCC(=O)O)NC(=O)[C@H](CCC(=O)O)NC(=O)[C@H](Cc1ccc(OP(=O)(O)O)cc1)NC(=O)CNC(=O)c1ccc2c(c1)C(=O)OC21c2ccc(O)cc2Oc2cc(O)ccc21)C(=O)N1CCC[C@H]1C(=O)O [5-CF-GpYEEIP] (5FAM-G[pY]EEIP-OH)
Kd [2]: > 2560 nM

Molecule: CC[C@H](C)[C@H](NC(=O)[C@H](CC(N)=O)NC(=O)[C@H](CO)NC(=O)[C@@H]1CCCN1C(=O)[C@H](CC(C)C)NC(=O)[C@H](Cc1ccc(OP(=O)(O)O)cc1)NC(=O)CNC(=O)c1ccc2c(c1)C(=O)OC21c2ccc(O)cc2Oc2cc(O)ccc21)C(=O)N[C@@H](CC(=O)O)C(=O)O [5-CF-GpYLPSNID] (5FAM-G[pY]LPSNID-OH)
Kd ([2]; SD): 160 ± 6 nM

Molecule: CC(C)C[C@H](NC(=O)[C@H](Cc1ccc(OP(=O)(O)O)cc1)NC(=O)CNC(=O)c1ccc2c(c1)C(=O)OC21c2ccc(O)cc2Oc2cc(O)ccc21)C(=O)N[C@H](C(=O)N[C@@H](CC(C)C)C(=O)N[C@@H](CC(=O)O)C(=O)N[C@@H](CCCCN)C(=O)N[C@@H](Cc1c[nH]c2ccccc12)C(=O)O)C(C)C [5-CF-GpYLVLDKW]
Kd ([2]; SD): 267 ± 6 nM
fold lower affinity for STAT4 than 5-CF-GpYLPQNID ([2]; 10 nM labelled peptide): approximately 8 fold

Molecule: SHEGpYLPWNID
fold less potent against STAT4 than SHEGpYLPQNID in an ELISA (STAT4): 2-3 fold
IC50 (STAT4): 930 nM

Molecule: CC(C)C[C@H](NC(=O)[C@H](Cc1ccc(OP(=O)(O)O)cc1)NC(=O)CNC(=O)c1ccc2c(c1)C(=O)OC21c2ccc(O)cc2Oc2cc(O)ccc21)C(=O)N1CCC[C@H]1C(=O)N[C@@H](CCC(N)=O)C(=O)N[C@H](C(=O)N[C@H](C(N)=O)C(C)C)[C@@H](C)O [5-CF-GpYLPQTV-NH2] (5FAM-G[pY]LPQTV-NH2)
Kd ([2]; SD): 82 ± 2 nM
fold lower affinity for STAT4 than 5-CF-GpYLPQNID ([2]; 10 nM labelled peptide): 2.4 fold

Molecule: 5-CF-GPMQSpTPLNG
binding to STAT4 (in words) ([2]; FP, 10 nM labelled peptide): did not bind

Molecule: CC(C)C[C@H](NC(=O)[C@H](Cc1c[nH]c2ccccc12)NC(=O)[C@H](CCCCN)NC(=O)[C@H](CC(=O)O)NC(=O)[C@H](CC(C)C)NC(=O)[C@@H](NC(=O)[C@H](CC(C)C)NC(=O)[C@H](Cc1ccc(OP(=O)(O)O)cc1)NC(=O)[C@@H](NC(=O)[C@@H](N)CC(=O)O)[C@@H](C)O)C(C)C)C(=O)O [DTpYLVLDKWL] (H-DT[pY]LVLDKWL-OH)
IC50 [1]: 4170 ± 130 nM

Molecule: SHEGpYLPQNID
IC50 (STAT4): 390 nM

Molecule: CC(C)C[C@H](NC(=O)[C@@H](NC(=O)[C@H](Cc1c[nH]cn1)NC(=O)[C@@H]1CCCN1C(=O)[C@H](CCCCN)NC(=O)[C@H](CC(=O)O)NC(=O)[C@H](Cc1ccc(OP(=O)(O)O)cc1)NC(=O)CNC(=O)c1ccc2c(c1)C(=O)OC21c2ccc(O)cc2Oc2cc(O)ccc21)C(C)C)C(=O)O [5-CF-GpYDKPHVL] (5FAM-G[pY]DKPHVL-OH)
Kd ([2]; SD): 1230 ± 284 nM

Molecule: CC(=O)N[C@@H](Cc1ccc(OP(=O)(O)O)cc1)C(=O)N[C@@H](CC(C)C)C(=O)N1CCC[C@H]1C(=O)N[C@@H](CCC(N)=O)C(=O)N[C@H](C(=O)N[C@H](C(N)=O)C(C)C)[C@@H](C)O [Ac-pYLPQTV-NH2]
IC50 [1]: 1270 ± 100 nM
fold less active than Ac-GpYLPQNID ([1]; ratio of IC50 values): 2.6 fold

Molecule: CC[C@H](C)[C@H](NC(=O)[C@H](CC(N)=O)NC(=O)[C@H](CCC(N)=O)NC(=O)[C@@H]1CCCN1C(=O)[C@H](CC(C)C)NC(=O)[C@H](Cc1ccc(OP(=O)(O)O)cc1)NC(=O)CNC(=O)c1ccc2c(c1)C(=O)OC21c2ccc(O)cc2Oc2cc(O)ccc21)C(=O)N[C@@H](CC(=O)O)C(=O)O [5-CF-GpYLPQNID] (5FAM-G[pY]LPQNID-OH)
Kd ([3]; FP, 10 nM labelled peptide, Figure S1, mean ± SD of 3 independent experiments, SD): 131 ± 6 nM
weaker affinity for STAT3 than for STAT4 ([3]; ratio of Kd values STAT3 vs STAT4): fourfold
binding to STAT4 R598A (in words) (STAT4 R598A): almost completely abolished
Kd [4]: > 2560 nM
reduction in affinity for STAT4 by 8 h ([2]; 8 h after addition of labelled probe): no more than 35%
Kd ([2]; SD): 34 ± 4 nM

Other lines, results leading:

IC50 [1]: 490 ± 40 nM
extrapolated maximum inhibition at infinite peptide concentrations ([1]; extrapolated from inhibition curve): 98.4 ± 0.9%
inhibition at 40 µM ([1]; read-out: Inhibition at 40 µM): 96%
Molecule: CC[C@H](C)[C@H](NC(=O)[C@H](CC(N)=O)NC(=O)[C@H](CCC(N)=O)NC(=O)[C@@H]1CCCN1C(=O)[C@H](CC(C)C)NC(=O)[C@H](Cc1ccc(OP(=O)(O)O)cc1)NC(=O)CNC(C)=O)C(=O)N[C@@H](CC(=O)O)C(=O)O [Ac-GpYLPQNID] (Ac-G[pY]LPQNID-OH)

Kd ([2]; SD): 93 ± 8 nM
fold lower affinity for STAT4 than 5-CF-GpYLPQNID ([2]; 10 nM labelled peptide): 3 fold
Molecule: CC[C@H](C)[C@H](NC(=O)[C@H](CC(C)C)NC(=O)[C@H](CC(=O)O)NC(=O)[C@H](CCC(N)=O)NC(=O)[C@H](Cc1c[nH]c2ccccc12)NC(=O)[C@@H]1CCCN1C(=O)[C@@H](NC(=O)[C@H](Cc1ccc(OP(=O)(O)O)cc1)NC(=O)CNC(=O)c1ccc2c(c1)C(=O)OC21c2ccc(O)cc2Oc2cc(O)ccc21)C(C)C)C(=O)O [5-CF-GpYVPWQDLI] (5FAM-G[pY]VPWQDLI-OH)

inhibition ([1]; read-out: Inhibition at 40 µM, 40 µM unlabelled peptide, n = 2): 2 ± 2%
inhibitory effect on STAT4 (in words) ([1]; up to 40 µM): no detectable inhibitory effect
Molecule: MAGPMQSpTPLNGAKK

inhibition ([1]; read-out: Inhibition at 40 µM, 40 µM unlabelled peptide (highest concentration tested)): 37 ± 4%
Molecule: GpYEEIP

Kd (IFN-γ receptor peptide): 1230 nM
Kd (EPO receptor peptide): 267 nM
Kd (gp130 peptide): 82 nM
B1: STAT4 SH2 (protein)
chain: LPLWIDGYVMGFVSKEKERLLLKDKMPGTFLLRFSESHLGGITFTWVDHSESGEVRFHSVEPYNKGRLSALPFADILRDYKVIMAENIPENPLKYLYPDIPK
